# In patent US10662204B2 (PFIZER INC., priority 2018, dated 2020):
# Key:
# KRAS G12C = KRAS G12C (Homo sapiens, UniProt P01116, G12C); test: Cell Activity Assay: accumulation of GDP-bound KRAS G12C in MIAPaCa-2 cells (Raf-1 RBD capture, MSD readout); format: cell-based; parameters: endogenous in cells; host or cells: MIAPaCa-2; conditions: 6 hours, assay limit is 30.00
# In short: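 IC50 came from a 4-parameter fit of Ras signal normalized between DMSO and full-inhibition controls. Readout: lysate GTP-Ras bound to immobilized Raf-1 RBD, quantified with pan-Ras antibody and MSD electrochemiluminescence. Lysates derived from MIAPaCa-2 cells treated 6 h with serially diluted compound, 0.3% DMSO.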
# [1] = target: T1, GDP-loaded KRAS (1-169) G12C, C51S, C80L, C118S (Homo sapiens, UniProt P01116, C118S/C51S/C80L/G12C); test: Mass Spectrometry Reactivity Assay (MSRA): covalent adduct of compound and KRAS G12C, Percent Modification; format: binding; conditions: for MSRA (% modification) 10 μM 0.25 hr / MSRA (% modification) 10 μM 0.50 hr: 10 μM compound; for MSRA (% modification) 5.0 μM 0.25 hr / MSRA (% modification) 5.0 μM 0.017 hr: 5.0 μM compound
# T1 construct: GDP-loaded KRAS (1-169) G12C, C51S, C80L, C118S
# In short: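 Covalent labelling is measured by intact mass: deconvoluted modified and unmodified peak intensities yield percent modification. Compound, usually 5 μM or 10 μM final, reacts at room temperature with 5 μM GDP-bound KRAS G12C (1-169, C51S/C80L/C118S) in Hepes pH 7.5/NaCl/glycerol, sampled at 1, 15, 30, 60 min.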
IC50 (KRAS G12C),MSRA (% modification) 10 μM 0.25 hr [1],MSRA (% modification) 10 μM 0.50 hr [1],MSRA (% modification) 5.0 μM 0.25 hr [1],MSRA (% modification) 5.0 μM 0.017 hr [1],Compound
14 µM,75%,75%,,,"C=CC(=O)N1CCN(c2ncnc3c(Oc4c(C)c(Cl)cc5[nH]ncc45)cccc23)CC1CC#N (stereo not shown) [Example 22C, (1-acryloyl-4-{8-[(5-chloro-6-mehtyl-1H-indazol-4-yl)oxy]quinazolin-4-yl}piperazin-2-yl)acetonitrile]"
0.056 µM,81%,83%,83%,,"C=CC(=O)N1CCN(c2nc(OC[C@@H]3CCCN3C)nc3c(Oc4c(C)c(Cl)cc5[nH]ncc45)cccc23)CC1 [Example 22E, 1-[4-(8-[(6-chloro-5-methyl-1H-indazol-4-yl)oxy]-2-{[(2S)-1-methylpyrrolidin-2-yl]methoxy}quinazolin-4-yl)piperazin-1-yl]prop-2-en-1-one]"
0.535 µM,,,33%,,"C=CC(=O)N1CCN(c2nc(OCc3cscn3)nc3c(Oc4c(C)ccc5[nH]ncc45)nccc23)CC1 [Example 22F, 1-(4-{8-[(5-methyl-1H-indazol-4-yl)oxy]-2-(1,3-thiazol-4-ylmethoxy)pyrido[3,4-d]pyrimidin-4-yl}piperazin-1-yl)prop-2-en-1-one]"
0.072 µM,81%,,,,"C=CC(=O)N1CCN(c2nc(OC[C@H]3C[C@@H](F)CN3C)nc3c(Oc4c(Cl)c(F)cc5[nH]ncc45)nc(Cl)cc23)CC1 [Example 22G, 1-[4-(6-chloro-8-[(5-chloro-6-fluoro-1H-indazol-4-yl)oxy]-2-{[(2R,4R)-4-fluoro-1-methylpyrrolidin-2-yl]methoxy}pyrido[3,4-d]pyrimidin-4-yl)piperazin-1-yl]prop-2-en-1-one]"
0.003 µM,,,,80%,"C=CC(=O)N1CCN(c2nc(Oc3cccc4c3CCN(C)C4)nc3c(Oc4c(Cl)c(F)cc5[nH]ncc45)nccc23)CC1 [Example 22I, 1-(4-{8-[(5-chloro-6-fluoro-1H-indazol-4-yl)oxy]-2-[(2-methyl-1,2,3,4-tetrahydro-isoquinolin-5-yl)oxy]pyrido [3,4-d]pyrimidin-4-yl}piperazin-1-yl)prop-2-en-1-one]"
11.6 µM,,20%,,,"C=CC(=O)N1CCN(c2ncnc3c(Oc4c(C)c(Cl)cc5[nH]ncc45)nccc23)C[C@@H]1C [Example 23A, 1-[(2S)-4-{8-[(6-chloro-5-methyl-1H-indazol-4-yl)oxy]pyrido[3,4-d]pyrimidin-4-yl}-2-methylpiperazin-1-yl]prop-2-en-1-one]"
0.944 µM,66%,,55%,,"C=CC(=O)N1CCN(c2nc(OCc3cscn3)nc3c(Oc4c(C)ccc5[nH]ncc45)cccc23)CC1 [Example 23F, 1-(4-{8-[(5-methyl-1H-indazol-4-yl)oxy]-2-(1,3-thiazol-4-ylmethoxy)quinazolin-4-yl}piperazin-1-yl)prop-2-en-1-one]"
0.688 µM,,,35%,,"C=CC(=O)N1CCN(c2nc(OCCO)nc3c(Oc4c(Cl)c(F)cc5[nH]ncc45)nc(Cl)cc23)CC1 [Example 23G, 1-(4-{6-chloro-8-[(5-chloro-6-fluoro-1H-indazol-4-yl)oxy]-2-(2-hydroxyethoxy)pyrido[3,4-d]pyrimidin-4-yl}piperazin-1-yl)prop-2-en-1-one]"
4.72 µM,,20%,,,"C=CC(=O)N1CCN(c2ncnc3c(Oc4c(C)c(Cl)cc5[nH]ncc45)nccc23)C[C@H]1C [Example 24A, 1-[(2R)-4-{8-[(6-chloro-5-methyl-1H-indazol-4-yl)oxy]pyrido[3,4-d]pyrimidin-4-yl}-2-methylpiperazin-1-yl]prop-2-en-1-one]"
0.004 µM,,,84%,83%,"C=CC(=O)N1CCN(c2nc(O[C@@H]3CN(C)C[C@H]3OC)nc3c(Oc4c(Cl)c(F)cc5[nH]ncc45)nc(Cl)cc23)CC1 [Example 24G, 1-[4-(6-chloro-8-[(5-chloro-6-fluoro-1H-indazol-4-yl)oxy]-2-{[(3R,4R)-4-methoxy-1-methylpyrrolidin-3-yl]oxy}pyrido[3,4-d]pyrimidin-4-yl)piperazin-1-yl]prop-2-en-1-one]"
8.89 µM,,17%,,,"C=CC(=O)N1CCN(c2ncnc3c(Oc4c(Cl)c(F)cc5[nH]ncc45)nccc23)C[C@H]1C [Example 25A, 1-[(2R)-4-{8-[(5-chloro-6-fluoro-1H-indazol-4-yl)oxy]pyrido[3,4-d]pyrimidin-4-yl}-2-methylpiperazin-1-yl]prop-2-en-1-one]"
0.009 µM,,,,73%,"C=CC(=O)N1CCN(c2nc(OC[C@]3(F)CCCN(C)C3)nc3c(Oc4c(Cl)c(F)cc5[nH]ncc45)nc(Cl)cc23)CC1 [Example 25G, 1-[4-(6-chloro-8-[(5-chloro-6-fluoro-1H-indazol-4-yl)oxy]-2-{[(3S)-3-fluoro-1-methylpiperidin-3-yl]methoxy}pyrido[3,4-d]pyrimidin-4-yl)piperazin-1-yl]prop-2-en-1-one]"
27.6 µM,,14%,,,"C=CC(=O)N1CCN(c2ncnc3c(Oc4c(Cl)c(F)cc5[nH]ncc45)nccc23)C[C@@H]1C [Example 26A, 1-[(2S)-4-{8-[(5-chloro-6-fluoro-1H-indazol-4-yl)oxy]pyrido[3,4-d]pyrimidin-4-yl}-2-methylpiperazin-1-yl]prop-2-en-1-one]"
13.3 µM,,30%,,,"C=CC(=O)N1CCN(c2ncnc3c(Oc4c(C)c(Cl)cc5[nH]ncc45)nc(C#N)cc23)C[C@H]1C [Example 27A, 4-[(3R)-4-acryloyl-3-methylpiperazin-1-yl]-8-[(6-chloro-5-methyl-1H-indazol-4-yl)oxy]pyrido[3,4-d]pyrimidine-6-carbonitrile]"
0.029 µM,,,,67%,"C=CC(=O)N1CCN(c2nc(O[C@@H]3CN(C)C[C@H]3OCC)nc3c(Oc4c(Cl)c(F)cc5[nH]ncc45)nc(Cl)cc23)CC1 [Example 27G, 1-[4-(6-chloro-8-[(5-chloro-6-fluoro-1H-indazol-4-yl)oxy]-2-{[(3R,4R)-4-ethoxy-1-methylpyrrolidin-3-yl]oxy}pyrido[3,4-d]pyrimidin-4-yl)piperazin-1-yl]prop-2-en-1-one]"
1.02 µM,,61%,,,"C=CC(=O)N1CCN(c2ncnc3c(Oc4c(C)c(Cl)cc5[nH]ncc45)nc(C#N)cc23)CC1 [Example 28A, 4-(4-acryloylpiperazin-1-yl)-8-[(6-chloro-5-methyl-1H-indazol-4-yl)oxy]pyrido[3,4-d]pyrimidine-6-carbonitrile]"
1 µM,,,,11%,C=CC(=O)N1CCN(c2nc(O[C@@H]3CN(C)C[C@H]3OC)nc3c(Oc4c(C)ccc5[nH]ncc45)nccc23)CC1 [Example 28I]
0.391 µM,70%,76%,,,"C=CC(=O)N1CCN(c2ncnc3c(Oc4c(Cl)c(Cl)cc5[nH]ncc45)nccc23)CC1 [Example 29A, 1-(4-{8-[(5,6-dichloro-1H-indazol-4-yl)oxy]pyrido[3,4-d]pyrimidin-4-yl}piperazin-1-yl)prop-2-en-1-one]"
0.005 µM,,,,82%,"C=CC(=O)N1CCN(c2nc(O[C@@H]3CN(C)C[C@H]3OC)nc3c(Oc4c(Cl)c(Cl)cc5[nH]ncc45)nc(Cl)cc23)CC1 [Example 29G, 1-[4-(6-chloro-8-[(5,6-dichloro-1H-indazol-4-yl)oxy]-2-{[(3R,4R)-4-methoxy-1-methylpyrrolidin-3-yl]oxy}pyrido[3,4-d]pyrimidin-4-yl)piperazin-1-yl]prop-2-en-1-one]"
0.247 µM,,67%,,,"C=CC(=O)N1CCN(c2ncnc3c(Oc4c(Cl)c(Cl)cc5[nH]ncc45)nc(Cl)cc23)CC1 [Example 30A, 1-(4-{6-chloro-8-[(5,6-dichloro-1H-indazol-4-yl)oxy]pyrido[3,4-d]pyrimidin-4-yl}piperazin-1-yl)prop-2-en-1-one]"
0.03 µM,,,,45%,"C=CC(=O)N1CCN(c2nc(Oc3cccc4c3CCN(C(C)C)C4)nc3c(Oc4c(C)ccc5[nH]ncc45)nccc23)CC1 [Example 30I, 1-[4-(8-[(5-methyl-1H-indazol-4-yl)oxy]-2-{[2-(propan-2-yl)-1,2,3,4-tetrahydro-isoquinolin-5-yl]oxy}pyrido [3,4-d]pyrimidin-4-yl)piperazin-1-yl]prop-2-en-1-one]"
0.171 µM,,79%,,,"C=CC(=O)N1CCN(c2ncnc3c(Oc4c(C)c(Cl)cc5[nH]ncc45)nc(Cl)cc23)CC1 [Example 31A, 1-(4-{6-chloro-8-[(6-chloro-5-methyl-1H-indazol-4-yl)oxy]pyrido[3,4-d]pyrimidin-4-yl}piperazin-1-yl)prop-2-en-1-one]"
0.041 µM,,,,31%,"C=CC(=O)N1CCN(c2nc(Oc3cccc4c3CCN(CC)C4)nc3c(Oc4c(C)ccc5[nH]ncc45)nccc23)CC1 [Example 31I, 1-(4-{2-[(2-ethyl-1,2,3,4-tetrahydro-isoquinolin-5-yl)oxy]-8-[(5-methyl-1H-indazol-4-yl)oxy]pyrido [3,4-d]pyrimidin-4-yl}piperazin-1-yl)prop-2-en-1-one]"
